What was measured:
[1] = target: T1, Recombinant N-terminal GST tag full-length human HDAC8 (Homo sapiens, UniProt Q9BY41); assay: HDAC8 probe binding assay, time resolved fluorescence (TRF); conditions: fluorescein labeled pan-HDAC inhibitor probe, 16 hours incubation, compounds listed under IC50 range headings
T1 construct: Recombinant N-terminal GST tag full-length human HDAC8; purchased SignalChem H90-30G-1000; host or cells: Sf9 insect cells (baculovirus)
T1 sequence (Q9BY41 1-377): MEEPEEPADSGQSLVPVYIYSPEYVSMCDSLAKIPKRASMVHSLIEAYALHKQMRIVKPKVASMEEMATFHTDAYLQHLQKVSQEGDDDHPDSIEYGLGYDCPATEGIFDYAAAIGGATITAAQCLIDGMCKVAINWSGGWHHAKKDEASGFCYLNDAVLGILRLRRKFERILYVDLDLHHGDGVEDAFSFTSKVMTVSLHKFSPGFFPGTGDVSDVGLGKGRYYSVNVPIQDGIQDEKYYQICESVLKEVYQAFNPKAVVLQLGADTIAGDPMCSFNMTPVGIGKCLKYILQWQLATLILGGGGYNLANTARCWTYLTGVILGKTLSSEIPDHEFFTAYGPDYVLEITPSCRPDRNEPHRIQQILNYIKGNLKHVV
Method in brief: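 TR-FRET probe displacement using GST-tagged full-length human HDAC8 (Sf9-expressed, 2.5 nM) with 1.5 nM fluorescein-labelled pan-HDAC inhibitor probe and anti-GST terbium, in HEPES pH 7.5 buffer with GSH, BGG, Triton X-100. Compounds 25 μM–1.3 nM, 10-point; 16 h at room temperature. IC50 from 4-parameter fit of % inhibition versus no-enzyme and DMSO controls.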

[2] = target: T2, Full length human recombinant HDAC8 protein (Homo sapiens, UniProt Q9BY41); assay: In vitro histone deacetylase assay: enzymatic HDAC8 assay, electrophoretic mobility shift; type: biochemical; conditions: substrate RHKK(Ac)-NH2, 1 nM enzyme, compounds listed under IC50 range headings
T2 construct: Full length human recombinant HDAC8 protein was expressed in baculoviral system; made in house
T2 sequence (Q9BY41 1-377): T1 sequence (Q9BY41 1-377)
Method in brief: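 Readout was microfluidic mobility-shift separation of deacetylated product from fluorescent RHKK(Ac)-NH2 substrate (2 µM), after reaction with 1 nM recombinant full-length human HDAC8 at 25 °C, pH 7.5, stopped with SDS. Twelve 3-fold-spaced concentrations tested; product/sum ratios normalized to controls and fitted with a 4-parameter model for IC50.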

SMILES | IC50 [1] | IC50 [2]
Cc1ccc(N2CCN(c3ccccc3/C=C/C(=O)NO)C(=O)C2)cc1 [Example I-533, (E)-N-hydroxy-3-(2-(2-oxo-4-(p-tolyl)piperazin-1-yl)phenyl)acrylamide] | ≤ 1000 nM | < 1000 nM
O=C(/C=C/c1ccccc1NC(=O)c1ccccc1Oc1ccc(Cl)cc1F)NO [Example I-534, (E)-2-(4-chloro-2-fluorophenoxy)-N-(2-(3-(hydroxyamino)-3-oxoprop-1-en-1-yl)phenyl)benzamide] | ≤ 1000 nM | < 1000 nM
Cc1ccc(Oc2ccccc2C(=O)Nc2ccccc2/C=C/C(=O)NO)cn1 [Example I-535, (E)-N-(2-(3-(hydroxyamino)-3-oxoprop-1-en-1-yl)phenyl)-2-((6-methylpyridin-3-yl)oxy)benzamide] | ≤ 1000 nM | < 1000 nM
O=C(/C=C/c1ccccc1NC(=O)c1cccc(Oc2ccccc2)c1)NO [Example I-536, (E)-N-(2-(3-(hydroxyamino)-3-oxoprop-1-en-1-yl)phenyl)-3-phenoxybenzamide] | ≤ 1000 nM | < 1000 nM
O=C(/C=C/c1ccccc1NC(=O)c1ncccc1Oc1ccccc1)NO [Example I-537, N-{2-[(1E)-2-(hydroxycarbamoyl)eth-1-en-1-yl]phenyl}-3-phenoxypyridine-2-carboxamide] | ≤ 1000 nM | < 1000 nM
CC(C)(C)OC(=O)N1CCCCC12CCN(c1ccccc1/C=C/C(=O)NO)CC2 [Example I-538, tert-butyl (E)-9-(2-(3-(hydroxyamino)-3-oxoprop-1-en-1-yl)phenyl)-1,9-diazaspiro[5.5]undecane-1-carboxylate] | ≤ 1000 nM | < 1000 nM
O=C(/C=C/c1ccccc1NC(=O)c1ncsc1Oc1ccccc1)NO [Example I-539, N-{2-[(1E)-2-(hydroxycarbamoyl)eth-1-en-1-yl]phenyl}-5-phenoxy-1,3-thiazole-4-carboxamide] | ≤ 1000 nM | < 1000 nM
O=C(/C=C/c1ccccc1NC(=O)c1ccccc1Oc1ccc(C(F)(F)F)nc1)NO [Example I-540, (E)-N-(2-(3-(hydroxyamino)-3-oxoprop-1-en-1-yl)phenyl)-2-((6-(trifluoromethyl)pyridin-3-yl)oxy)benzamide] | ≤ 1000 nM | < 1000 nM
CC(C)(C)OC(=O)N1CCCC12CCN(c1ccccc1/C=C/C(=O)NO)C2 (centres unmarked) [Example I-541, tert-butyl (E)-7-(2-(3-(hydroxyamino)-3-oxoprop-1-en-1-yl)phenyl)-1,7-diazaspiro[4.4]nonane-1-carboxylate] | ≤ 1000 nM | < 1000 nM
CC(C)(C)OC(=O)N1CC2(CCCN2c2ccccc2/C=C/C(=O)NO)C1 [Example I-542, tert-butyl (E)-5-(2-(3-(hydroxyamino)-3-oxoprop-1-en-1-yl)phenyl)-2,5-diazaspiro[3.4]octane-2-carboxylate] | ≤ 1000 nM | < 1000 nM
CC(C)(C)OC(=O)N1CCCCC12CCN(c1ccccc1/C=C/C(=O)NO)C2 (centres unmarked) [Example I-543, tert-butyl (E)-2-(2-(3-(hydroxyamino)-3-oxoprop-1-en-1-yl)phenyl)-2,6-diazaspiro[4.5]decane-6-carboxylate] | ≤ 1000 nM | < 1000 nM
O=C(/C=C/c1ccccc1NC(=O)c1nc(Oc2ccccc2)cs1)NO [Example I-544, N-{2-[(1E)-2-(hydroxycarbamoyl)eth-1-en-1-yl]phenyl}-4-phenoxy-1,3-thiazole-2-carboxamide] | ≤ 1000 nM | < 1000 nM
CC(=O)N1CCCC12CCN(c1ccccc1/C=C/C(=O)NO)C2 (centres unmarked) [Example I-545] | ≤ 1000 nM | < 1000 nM
CC(=O)N1CC2(CCCN2c2ccccc2/C=C/C(=O)NO)C1 [Example I-547, (E)-3-(2-(2-acetyl-2,5-diazaspiro[3.4]octan-5-yl)phenyl)-N-hydroxyacrylamide] | ≤ 1000 nM | < 1000 nM
O=C(/C=C/c1cc(C(F)(F)F)ccc1NC(=O)c1ccccc1Oc1ccc(F)cc1)NO [Example I-556, 2-(4-fluorophenoxy)-N-{2-[(1E)-2-(hydroxycarbamoyl)eth-1-en-1-yl]-4-(trifluoromethyl)phenyl}benazmide] | ≤ 1000 nM | < 1000 nM
O=C(/C=C/c1cc(OC(F)(F)F)ccc1NC(=O)c1ccccc1Oc1ccc(F)cc1)NO [Example I-557, 2-(4-fluorophenoxy)-N-{2-[(1E)-2-(hydroxycarbamoyl)eth-1-en-1-yl]-4-(trifluoromethoxy)phenyl}benzamide] | ≤ 1000 nM | < 1000 nM
O=C(/C=C/c1ccccc1C(=O)N1CCCC1)NO [II-15, (E)-N-hydroxy-3-(2-(pyrrolidine-1-carbonyl)phenyl)acrylamide] | ≤ 1000 nM | < 1000 nM
O=C(/C=C/c1ccccc1C(=O)N1CCN(c2cnccn2)CC1)NO [II-22, (E)-N-hydroxy-3-(2-(4-(pyrazin-2-yl)piperazine-1-carbonyl)phenyl)acrylamide] | ≤ 1000 nM | < 1000 nM
O=C(/C=C/c1ccccc1C(=O)N1CCC[C@H](Cn2ccnc2)C1)NO [II-27, (R,E)-3-(2-(3-((1H-imidazol-1-yl)methyl)piperidine-1-carbonyl)phenyl)-N-hydroxyacrylamide] | ≤ 1000 nM | < 1000 nM
O=C(/C=C/c1ccccc1C(=O)N1CCC(F)(F)C1)NO [II-28, (E)-3-(2-(3,3-difluoropyrrolidine-1-carbonyl)phenyl)-N-hydroxyacrylamide] | ≤ 1000 nM | < 1000 nM
O=C(/C=C/c1ccccc1S(=O)(=O)C1CCN(C(=O)Cc2ccc(Cl)cc2)CC1)NO [II-29] | ≤ 1000 nM | < 1000 nM
COc1ccc(/C=C/C(=O)NO)c(NC(=O)c2ccccc2Oc2ccc(Cl)cc2F)c1 [II-37, 2-(4-chloro-2-fluorophenoxy)-N-{2-[(1E)-2-(hydroxycarbamoyl)eth-1-en-1-yl]-5-methoxyphenyl}benzamide] | ≤ 1000 nM | < 1000 nM

Source: US10508077B2 (FORMA Therapeutics, Inc., priority 2015, dated 2019)
